# Experimental data from patent publication US11566022B2, “3-(5-methoxy-1-oxoisoindolin-2-yl)piperidine-2,6-dione derivatives and uses thereof” (NOVARTIS AG, priority 2019, dated 2023).
# Target: HiBit-WIZ fusion protein (Homo sapiens, UniProt O95785+Q96SW2)
# Experiment: Quantification of WIZ protein levels in HiBit tag fusion protein assay (WIZ HiBit assay in 293T cells)
# Assay type: cell-based
# Design: Dmax: dose or concentration left out as unconfirmed
# Details: HEK-293T, 100 minus Amax; 293T cells; read-out: % degradation of WIZ (100-Amax)
# Chain of HiBit-WIZ fusion protein (O95785 whole entry, the tested form may be a part): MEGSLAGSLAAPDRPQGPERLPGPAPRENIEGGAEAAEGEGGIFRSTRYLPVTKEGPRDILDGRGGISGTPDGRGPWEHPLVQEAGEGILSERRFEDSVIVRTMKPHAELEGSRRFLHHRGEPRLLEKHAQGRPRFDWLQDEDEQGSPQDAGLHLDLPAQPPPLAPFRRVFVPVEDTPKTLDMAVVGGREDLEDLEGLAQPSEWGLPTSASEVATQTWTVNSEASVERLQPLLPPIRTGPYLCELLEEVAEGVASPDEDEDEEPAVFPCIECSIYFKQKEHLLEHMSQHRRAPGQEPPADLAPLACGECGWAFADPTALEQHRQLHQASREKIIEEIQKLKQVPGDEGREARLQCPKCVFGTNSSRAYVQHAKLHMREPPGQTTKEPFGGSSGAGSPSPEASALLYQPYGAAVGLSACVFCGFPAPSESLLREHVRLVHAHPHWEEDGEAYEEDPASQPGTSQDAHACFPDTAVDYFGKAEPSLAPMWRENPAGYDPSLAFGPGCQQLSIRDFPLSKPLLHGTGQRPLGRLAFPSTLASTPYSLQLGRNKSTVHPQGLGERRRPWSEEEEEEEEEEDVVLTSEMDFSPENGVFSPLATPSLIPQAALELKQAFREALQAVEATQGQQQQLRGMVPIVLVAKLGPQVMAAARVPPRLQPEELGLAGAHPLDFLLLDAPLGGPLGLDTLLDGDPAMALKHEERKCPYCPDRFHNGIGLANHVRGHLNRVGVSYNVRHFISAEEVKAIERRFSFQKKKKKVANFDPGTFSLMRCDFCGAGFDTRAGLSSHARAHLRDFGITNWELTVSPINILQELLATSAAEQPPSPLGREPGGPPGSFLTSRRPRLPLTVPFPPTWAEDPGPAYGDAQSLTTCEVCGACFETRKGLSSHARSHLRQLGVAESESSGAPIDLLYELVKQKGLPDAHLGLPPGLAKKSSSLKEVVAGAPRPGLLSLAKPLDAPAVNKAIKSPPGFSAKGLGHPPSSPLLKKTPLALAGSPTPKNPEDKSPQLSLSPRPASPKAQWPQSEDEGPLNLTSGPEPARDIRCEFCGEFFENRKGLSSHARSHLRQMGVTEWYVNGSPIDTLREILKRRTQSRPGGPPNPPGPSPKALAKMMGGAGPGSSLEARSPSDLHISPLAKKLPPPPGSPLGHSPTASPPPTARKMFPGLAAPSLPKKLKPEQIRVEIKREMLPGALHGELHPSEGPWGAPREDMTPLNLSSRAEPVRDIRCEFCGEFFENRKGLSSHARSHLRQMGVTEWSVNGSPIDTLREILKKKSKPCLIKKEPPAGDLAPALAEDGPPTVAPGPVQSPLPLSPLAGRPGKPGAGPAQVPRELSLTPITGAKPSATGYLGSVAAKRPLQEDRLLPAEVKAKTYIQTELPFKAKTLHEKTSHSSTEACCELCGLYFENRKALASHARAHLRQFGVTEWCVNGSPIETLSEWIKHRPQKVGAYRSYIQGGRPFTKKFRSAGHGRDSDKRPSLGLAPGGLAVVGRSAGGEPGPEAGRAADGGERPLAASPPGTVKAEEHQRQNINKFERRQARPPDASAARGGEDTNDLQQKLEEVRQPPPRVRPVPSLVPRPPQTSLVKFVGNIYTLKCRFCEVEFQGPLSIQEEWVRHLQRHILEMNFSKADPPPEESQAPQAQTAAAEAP
# Chain of HiBit-WIZ fusion protein (Q96SW2 whole entry, the tested form may be a part): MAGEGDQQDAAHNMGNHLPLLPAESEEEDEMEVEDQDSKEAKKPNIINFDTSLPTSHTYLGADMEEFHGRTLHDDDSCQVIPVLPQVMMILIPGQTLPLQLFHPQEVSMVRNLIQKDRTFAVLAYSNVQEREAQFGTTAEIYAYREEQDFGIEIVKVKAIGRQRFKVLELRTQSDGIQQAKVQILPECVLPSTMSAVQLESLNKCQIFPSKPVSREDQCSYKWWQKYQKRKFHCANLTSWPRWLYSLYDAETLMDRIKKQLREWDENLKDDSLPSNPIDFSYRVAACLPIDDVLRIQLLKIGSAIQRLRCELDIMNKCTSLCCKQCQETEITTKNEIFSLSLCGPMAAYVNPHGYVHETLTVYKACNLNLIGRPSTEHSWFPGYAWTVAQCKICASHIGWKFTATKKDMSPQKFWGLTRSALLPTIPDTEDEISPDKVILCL
# Chain of HiBit-WIZ fusion protein (Q16531 whole entry partner, the tested form may be a part): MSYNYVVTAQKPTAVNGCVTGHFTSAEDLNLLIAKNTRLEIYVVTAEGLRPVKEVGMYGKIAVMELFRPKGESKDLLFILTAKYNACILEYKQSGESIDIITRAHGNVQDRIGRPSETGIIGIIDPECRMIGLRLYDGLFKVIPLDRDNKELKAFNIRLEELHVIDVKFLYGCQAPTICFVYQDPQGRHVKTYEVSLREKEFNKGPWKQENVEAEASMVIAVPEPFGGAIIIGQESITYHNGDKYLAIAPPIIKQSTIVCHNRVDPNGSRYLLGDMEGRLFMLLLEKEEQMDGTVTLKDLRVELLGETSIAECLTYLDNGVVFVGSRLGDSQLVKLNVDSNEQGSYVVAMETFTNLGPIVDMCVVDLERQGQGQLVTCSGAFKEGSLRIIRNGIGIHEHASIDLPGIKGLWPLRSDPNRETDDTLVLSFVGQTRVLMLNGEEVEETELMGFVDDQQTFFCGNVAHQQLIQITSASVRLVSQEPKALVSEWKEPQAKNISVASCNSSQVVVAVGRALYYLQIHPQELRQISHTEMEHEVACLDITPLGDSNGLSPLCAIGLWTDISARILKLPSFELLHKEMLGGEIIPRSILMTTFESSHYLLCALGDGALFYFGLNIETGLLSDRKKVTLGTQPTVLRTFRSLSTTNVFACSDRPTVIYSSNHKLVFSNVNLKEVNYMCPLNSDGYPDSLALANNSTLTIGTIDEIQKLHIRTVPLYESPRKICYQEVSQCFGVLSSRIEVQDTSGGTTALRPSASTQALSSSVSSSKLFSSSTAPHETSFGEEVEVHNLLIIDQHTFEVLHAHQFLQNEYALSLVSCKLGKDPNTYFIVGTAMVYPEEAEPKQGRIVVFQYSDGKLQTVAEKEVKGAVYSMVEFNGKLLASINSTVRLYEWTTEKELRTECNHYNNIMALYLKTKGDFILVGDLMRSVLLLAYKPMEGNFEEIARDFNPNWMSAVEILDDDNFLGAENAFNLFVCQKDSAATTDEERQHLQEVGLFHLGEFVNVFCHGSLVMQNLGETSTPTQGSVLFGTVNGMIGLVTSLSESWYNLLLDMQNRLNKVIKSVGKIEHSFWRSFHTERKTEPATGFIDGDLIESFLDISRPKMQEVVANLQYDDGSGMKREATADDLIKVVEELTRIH
row,SMILES,Dmax [%]
1,CCn1cc(C(=O)N2CCCC[C@H]2COc2ccc3c(c2)CN(C2CCC(=O)NC2=O)C3=O)c(C)n1 (stereo partly drawn) [Compound I-72gw],19.1
2,Cc1nnc(-c2ccc(C(=O)N3CCCC[C@H]3COc3ccc4c(c3)CN(C3CCC(=O)NC3=O)C4=O)cc2)o1 (stereo partly drawn) [Compound I-72gy],44.1
3,Cn1nccc1-c1cccc(C(=O)N2CCCC[C@H]2COc2ccc3c(c2)CN(C2CCC(=O)NC2=O)C3=O)c1 (stereo partly drawn) [Compound I-72gz],13.7
4,O=C1CCC(N2Cc3cc(OC[C@@H]4CCCCN4C(=O)c4cccc(N5CCCC5=O)c4)ccc3C2=O)C(=O)N1 (stereo partly drawn) [Compound I-72hf],6.8
5,Cc1cc(O)cc(C(=O)N2CCCC[C@H]2COc2ccc3c(c2)CN(C2CCC(=O)NC2=O)C3=O)c1 (stereo partly drawn) [Compound I-72hi],13.8
6,CC(C)(C)c1cc(CC(=O)N2CCCC[C@H]2COc2ccc3c(c2)CN(C2CCC(=O)NC2=O)C3=O)on1 (stereo partly drawn) [Compound I-72hj],0.7
7,COc1ccc(CC(=O)N2CCCC[C@H]2COc2ccc3c(c2)CN(C2CCC(=O)NC2=O)C3=O)cn1 (stereo partly drawn) [Compound I-72hk],9.2
8,O=C1CCC(N2Cc3cc(OC[C@@H]4CCCCN4C(=O)c4ccc5nccnc5c4)ccc3C2=O)C(=O)N1 (stereo partly drawn) [Compound I-72hq],13.3
9,O=C1CCC(N2Cc3cc(OC[C@@H]4CCCCN4C(=O)c4cccc(OC(F)F)c4)ccc3C2=O)C(=O)N1 (stereo partly drawn) [Compound I-72hx],5.1
10,Cn1ccc(-c2cccc(C(=O)N3CCCC[C@H]3COc3ccc4c(c3)CN(C3CCC(=O)NC3=O)C4=O)c2)n1 (stereo partly drawn) [Compound I-72id],11
11,CN1CCOc2cc(C(=O)N3CCCC[C@H]3COc3ccc4c(c3)CN(C3CCC(=O)NC3=O)C4=O)cnc21 (stereo partly drawn) [Compound I-72ij],68.7
12,Cn1nc(C(=O)N2CCCC[C@H]2COc2ccc3c(c2)CN(C2CCC(=O)NC2=O)C3=O)cc1-c1ccccc1 (stereo partly drawn) [Compound I-72ir],35.7
13,COc1cc(OC)nc(C(=O)N2CCCC[C@H]2COc2ccc3c(c2)CN(C2CCC(=O)NC2=O)C3=O)n1 (stereo partly drawn) [Compound I-72is],0.9
14,CCN1CCC[C@@H](C(=O)N2CCCC[C@H]2COc2ccc3c(c2)CN(C2CCC(=O)NC2=O)C3=O)C1 (stereo partly drawn) [Compound I-72it],5.9
15,Cc1cc(-n2c(C)cc(C(=O)N3CCCC[C@H]3COc3ccc4c(c3)CN(C3CCC(=O)NC3=O)C4=O)c2C)no1 (stereo partly drawn) [Compound I-72iu],71.7
16,O=C1CCC(N2Cc3cc(OC[C@@H]4CCCCN4C(=O)C45CC(F)(C4)C5)ccc3C2=O)C(=O)N1 (stereo partly drawn) [Compound I-72iv],2.2
17,O=C1CCC(N2Cc3cc(OC[C@@H]4CCCCN4C(=O)c4[nH]nc5c4CCCC5)ccc3C2=O)C(=O)N1 (stereo partly drawn) [Compound I-72ix],13
18,O=C1CCC(N2Cc3cc(OC[C@@H]4CCCCN4C(=O)c4cccc5cnccc45)ccc3C2=O)C(=O)N1 (stereo partly drawn) [Compound I-72j],21.5
19,O=C1CCC(N2Cc3cc(OC[C@@H]4CCCCN4C(=O)CCn4c(=O)oc5ccccc54)ccc3C2=O)C(=O)N1 (stereo partly drawn) [Compound I-72jb],0.3
20,CCc1ncc(C(=O)N2CCCC[C@H]2COc2ccc3c(c2)CN(C2CCC(=O)NC2=O)C3=O)s1 (stereo partly drawn) [Compound I-72jf],34.2
21,CN(C)CC(=O)N1CCCC[C@H]1COc1ccc2c(c1)CN(C1CCC(=O)NC1=O)C2=O (stereo partly drawn) [Compound I-72jk],7.2
22,O=C1CCC(N2Cc3cc(OC[C@@H]4CCCCN4C(=O)CN4CCCCC4)ccc3C2=O)C(=O)N1 (stereo partly drawn) [Compound I-72jq],11.7
23,CC(C)Oc1cccc(C(=O)N2CCCC[C@H]2COc2ccc3c(c2)CN(C2CCC(=O)NC2=O)C3=O)c1 (stereo partly drawn) [Compound I-72ju],14.5

# Same assay, conditions: HEK-293T, DMSO-normalized, curve-fitted percentage of WIZ-HiBit remaining at 25 uM; 293T cells; read-out: WIZ Amax
row,SMILES,remaining activity at up to 25 µM [%]
1,CCn1cc(C(=O)N2CCCC[C@H]2COc2ccc3c(c2)CN(C2CCC(=O)NC2=O)C3=O)c(C)n1 (stereo partly drawn) [Compound I-72gw],80.9
2,Cc1nnc(-c2ccc(C(=O)N3CCCC[C@H]3COc3ccc4c(c3)CN(C3CCC(=O)NC3=O)C4=O)cc2)o1 (stereo partly drawn) [Compound I-72gy],55.9
3,Cn1nccc1-c1cccc(C(=O)N2CCCC[C@H]2COc2ccc3c(c2)CN(C2CCC(=O)NC2=O)C3=O)c1 (stereo partly drawn) [Compound I-72gz],86.3
4,O=C1CCC(N2Cc3cc(OC[C@@H]4CCCCN4C(=O)c4cccc(N5CCCC5=O)c4)ccc3C2=O)C(=O)N1 (stereo partly drawn) [Compound I-72hf],93.2
5,Cc1cc(O)cc(C(=O)N2CCCC[C@H]2COc2ccc3c(c2)CN(C2CCC(=O)NC2=O)C3=O)c1 (stereo partly drawn) [Compound I-72hi],86.2
6,CC(C)(C)c1cc(CC(=O)N2CCCC[C@H]2COc2ccc3c(c2)CN(C2CCC(=O)NC2=O)C3=O)on1 (stereo partly drawn) [Compound I-72hj],99.3
7,COc1ccc(CC(=O)N2CCCC[C@H]2COc2ccc3c(c2)CN(C2CCC(=O)NC2=O)C3=O)cn1 (stereo partly drawn) [Compound I-72hk],90.8
8,O=C1CCC(N2Cc3cc(OC[C@@H]4CCCCN4C(=O)c4ccc5nccnc5c4)ccc3C2=O)C(=O)N1 (stereo partly drawn) [Compound I-72hq],86.7
9,O=C1CCC(N2Cc3cc(OC[C@@H]4CCCCN4C(=O)c4cccc(OC(F)F)c4)ccc3C2=O)C(=O)N1 (stereo partly drawn) [Compound I-72hx],94.9
10,Cn1ccc(-c2cccc(C(=O)N3CCCC[C@H]3COc3ccc4c(c3)CN(C3CCC(=O)NC3=O)C4=O)c2)n1 (stereo partly drawn) [Compound I-72id],89
11,CN1CCOc2cc(C(=O)N3CCCC[C@H]3COc3ccc4c(c3)CN(C3CCC(=O)NC3=O)C4=O)cnc21 (stereo partly drawn) [Compound I-72ij],31.3
12,Cn1nc(C(=O)N2CCCC[C@H]2COc2ccc3c(c2)CN(C2CCC(=O)NC2=O)C3=O)cc1-c1ccccc1 (stereo partly drawn) [Compound I-72ir],64.3
13,COc1cc(OC)nc(C(=O)N2CCCC[C@H]2COc2ccc3c(c2)CN(C2CCC(=O)NC2=O)C3=O)n1 (stereo partly drawn) [Compound I-72is],99.1
14,CCN1CCC[C@@H](C(=O)N2CCCC[C@H]2COc2ccc3c(c2)CN(C2CCC(=O)NC2=O)C3=O)C1 (stereo partly drawn) [Compound I-72it],94.1
15,Cc1cc(-n2c(C)cc(C(=O)N3CCCC[C@H]3COc3ccc4c(c3)CN(C3CCC(=O)NC3=O)C4=O)c2C)no1 (stereo partly drawn) [Compound I-72iu],28.3
16,O=C1CCC(N2Cc3cc(OC[C@@H]4CCCCN4C(=O)C45CC(F)(C4)C5)ccc3C2=O)C(=O)N1 (stereo partly drawn) [Compound I-72iv],97.8
17,O=C1CCC(N2Cc3cc(OC[C@@H]4CCCCN4C(=O)c4[nH]nc5c4CCCC5)ccc3C2=O)C(=O)N1 (stereo partly drawn) [Compound I-72ix],87
18,O=C1CCC(N2Cc3cc(OC[C@@H]4CCCCN4C(=O)c4cccc5cnccc45)ccc3C2=O)C(=O)N1 (stereo partly drawn) [Compound I-72j],78.5
19,O=C1CCC(N2Cc3cc(OC[C@@H]4CCCCN4C(=O)CCn4c(=O)oc5ccccc54)ccc3C2=O)C(=O)N1 (stereo partly drawn) [Compound I-72jb],99.7
20,CCc1ncc(C(=O)N2CCCC[C@H]2COc2ccc3c(c2)CN(C2CCC(=O)NC2=O)C3=O)s1 (stereo partly drawn) [Compound I-72jf],65.8
21,CN(C)CC(=O)N1CCCC[C@H]1COc1ccc2c(c1)CN(C1CCC(=O)NC1=O)C2=O (stereo partly drawn) [Compound I-72jk],92.8
22,O=C1CCC(N2Cc3cc(OC[C@@H]4CCCCN4C(=O)CN4CCCCC4)ccc3C2=O)C(=O)N1 (stereo partly drawn) [Compound I-72jq],88.3
23,CC(C)Oc1cccc(C(=O)N2CCCC[C@H]2COc2ccc3c(c2)CN(C2CCC(=O)NC2=O)C3=O)c1 (stereo partly drawn) [Compound I-72ju],85.5

# Same assay, conditions: WIZ HiBit assay in 293T cells; 10-point, 5-fold dose response, highest concentration 25 μM, about 18 hours; read-out: WIZ AC50
row,SMILES,DC50 [µM]
1,CCn1cc(C(=O)N2CCCC[C@H]2COc2ccc3c(c2)CN(C2CCC(=O)NC2=O)C3=O)c(C)n1 (stereo partly drawn) [Compound I-72gw],> 25
2,Cc1nnc(-c2ccc(C(=O)N3CCCC[C@H]3COc3ccc4c(c3)CN(C3CCC(=O)NC3=O)C4=O)cc2)o1 (stereo partly drawn) [Compound I-72gy],> 25
3,Cn1nccc1-c1cccc(C(=O)N2CCCC[C@H]2COc2ccc3c(c2)CN(C2CCC(=O)NC2=O)C3=O)c1 (stereo partly drawn) [Compound I-72gz],> 25
4,O=C1CCC(N2Cc3cc(OC[C@@H]4CCCCN4C(=O)c4cccc(N5CCCC5=O)c4)ccc3C2=O)C(=O)N1 (stereo partly drawn) [Compound I-72hf],> 25
5,Cc1cc(O)cc(C(=O)N2CCCC[C@H]2COc2ccc3c(c2)CN(C2CCC(=O)NC2=O)C3=O)c1 (stereo partly drawn) [Compound I-72hi],> 25
6,CC(C)(C)c1cc(CC(=O)N2CCCC[C@H]2COc2ccc3c(c2)CN(C2CCC(=O)NC2=O)C3=O)on1 (stereo partly drawn) [Compound I-72hj],> 25
7,COc1ccc(CC(=O)N2CCCC[C@H]2COc2ccc3c(c2)CN(C2CCC(=O)NC2=O)C3=O)cn1 (stereo partly drawn) [Compound I-72hk],> 25
8,O=C1CCC(N2Cc3cc(OC[C@@H]4CCCCN4C(=O)c4ccc5nccnc5c4)ccc3C2=O)C(=O)N1 (stereo partly drawn) [Compound I-72hq],> 25
9,O=C1CCC(N2Cc3cc(OC[C@@H]4CCCCN4C(=O)c4cccc(OC(F)F)c4)ccc3C2=O)C(=O)N1 (stereo partly drawn) [Compound I-72hx],> 25
10,Cn1ccc(-c2cccc(C(=O)N3CCCC[C@H]3COc3ccc4c(c3)CN(C3CCC(=O)NC3=O)C4=O)c2)n1 (stereo partly drawn) [Compound I-72id],> 25
11,CN1CCOc2cc(C(=O)N3CCCC[C@H]3COc3ccc4c(c3)CN(C3CCC(=O)NC3=O)C4=O)cnc21 (stereo partly drawn) [Compound I-72ij],2.77
12,Cn1nc(C(=O)N2CCCC[C@H]2COc2ccc3c(c2)CN(C2CCC(=O)NC2=O)C3=O)cc1-c1ccccc1 (stereo partly drawn) [Compound I-72ir],> 25
13,COc1cc(OC)nc(C(=O)N2CCCC[C@H]2COc2ccc3c(c2)CN(C2CCC(=O)NC2=O)C3=O)n1 (stereo partly drawn) [Compound I-72is],> 25
14,CCN1CCC[C@@H](C(=O)N2CCCC[C@H]2COc2ccc3c(c2)CN(C2CCC(=O)NC2=O)C3=O)C1 (stereo partly drawn) [Compound I-72it],> 25
15,Cc1cc(-n2c(C)cc(C(=O)N3CCCC[C@H]3COc3ccc4c(c3)CN(C3CCC(=O)NC3=O)C4=O)c2C)no1 (stereo partly drawn) [Compound I-72iu],2
16,O=C1CCC(N2Cc3cc(OC[C@@H]4CCCCN4C(=O)C45CC(F)(C4)C5)ccc3C2=O)C(=O)N1 (stereo partly drawn) [Compound I-72iv],> 25
17,O=C1CCC(N2Cc3cc(OC[C@@H]4CCCCN4C(=O)c4[nH]nc5c4CCCC5)ccc3C2=O)C(=O)N1 (stereo partly drawn) [Compound I-72ix],> 25
18,O=C1CCC(N2Cc3cc(OC[C@@H]4CCCCN4C(=O)c4cccc5cnccc45)ccc3C2=O)C(=O)N1 (stereo partly drawn) [Compound I-72j],> 25
19,O=C1CCC(N2Cc3cc(OC[C@@H]4CCCCN4C(=O)CCn4c(=O)oc5ccccc54)ccc3C2=O)C(=O)N1 (stereo partly drawn) [Compound I-72jb],> 25
20,CCc1ncc(C(=O)N2CCCC[C@H]2COc2ccc3c(c2)CN(C2CCC(=O)NC2=O)C3=O)s1 (stereo partly drawn) [Compound I-72jf],> 25
21,CN(C)CC(=O)N1CCCC[C@H]1COc1ccc2c(c1)CN(C1CCC(=O)NC1=O)C2=O (stereo partly drawn) [Compound I-72jk],> 25
22,O=C1CCC(N2Cc3cc(OC[C@@H]4CCCCN4C(=O)CN4CCCCC4)ccc3C2=O)C(=O)N1 (stereo partly drawn) [Compound I-72jq],> 25
23,CC(C)Oc1cccc(C(=O)N2CCCC[C@H]2COc2ccc3c(c2)CN(C2CCC(=O)NC2=O)C3=O)c1 (stereo partly drawn) [Compound I-72ju],> 25
